How the values were obtained:
GSPT1 = molecular target: T1, GSPT1 (Homo sapiens, UniProt P15170+Q96SW2); assay: GSPT1 HiBit degradation assay; type: cell-based; details: Table 3; HEK293 LgBiT cells expressing GSPT1_HiBiT, luminescence after 6 hours
T1 construct: host or cells: HEK293 LgBiT cell line
Summary of the method: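 HEK293 cells stably expressing LgBiT and GSPT1-HiBiT, seeded 18-24 h before dosing, were treated with titrated compound plus endurazine (0.5× final) at 37 °C. Luminescence loss after 6 h reflects GSPT1 degradation; DC50 is the concentration giving 50% degradation.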

HeLa KRas G12C cells = assay: Cellular growth inhibition assay (CTG), HeLa KRas G12C cells; type: cell-based; details: Homo sapiens, CellTiter-Glo 2.0, day-5
Description: Cells were seeded in Poly-D-lysine-treated 384-well white plates, with 25 μL cell suspension at 250 cells/well for continuous treatments, and 1000 cells/well for washout treatments. Plates were spun at 300×g for 3 minutes, and cells were cultured at 37° C. with 5% CO2 in a humidified tissue culture incubator.
After 24 hours, the test compounds were diluted with cell culture medium in 96 deep well plates. DMSO was used as a negative control. A 25 μL aliquot of compound-containing medium was added in each well, at a final top concentration of 10 μM or 30 μM test compound, with 3-fold dilutions. For washout assays, after 4 hours, cell medium with compound was removed, and the cells were washed with 75p L fresh medium. Plates were then spun at 300×g for 3 minutes and replaced with 50 μL fresh medium in each well. Plates were then spun at 300×g for 3 minutes again and cultured at 37° C. with 5% CO2.
At day-0 and day-5 of compound treatments, cell viability was quantified with CellTiter-Glo 2.0 (Promega). After equilibrating cell plates at room temperature for 30 minutes, 25 μL CellTiter-Glo 2.0 reagent was dispensed into each well (on top of 50 μL of cell culture). Plates were mixed on a shaker for 2 minutes at 500 rpm, followed by a 10-minute incubation at room temperature. Luminescence readings were measured with an EnVision Plate Reader. Data was normalized to DMSO treated day-0 cell wells. A four-parameter non-linear regression curve fit was applied to dose-response data in Prism to determine the half maximal growth inhibitory concentration (GI50) of each compound.

T1 sequence (P15170 whole entry): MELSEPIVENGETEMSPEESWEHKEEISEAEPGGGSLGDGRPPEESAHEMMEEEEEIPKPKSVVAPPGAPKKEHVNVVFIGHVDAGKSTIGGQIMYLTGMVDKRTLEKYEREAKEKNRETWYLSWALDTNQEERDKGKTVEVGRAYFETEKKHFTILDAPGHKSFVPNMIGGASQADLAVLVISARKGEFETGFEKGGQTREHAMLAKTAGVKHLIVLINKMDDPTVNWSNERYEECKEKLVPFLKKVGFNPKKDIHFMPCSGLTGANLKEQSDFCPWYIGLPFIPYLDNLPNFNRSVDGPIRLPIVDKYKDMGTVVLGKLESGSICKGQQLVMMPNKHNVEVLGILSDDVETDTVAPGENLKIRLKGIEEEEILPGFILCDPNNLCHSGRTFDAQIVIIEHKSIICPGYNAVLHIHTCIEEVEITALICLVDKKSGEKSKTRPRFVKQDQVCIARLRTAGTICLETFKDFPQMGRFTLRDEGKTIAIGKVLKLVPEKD
T1 sequence (Q96SW2 whole entry): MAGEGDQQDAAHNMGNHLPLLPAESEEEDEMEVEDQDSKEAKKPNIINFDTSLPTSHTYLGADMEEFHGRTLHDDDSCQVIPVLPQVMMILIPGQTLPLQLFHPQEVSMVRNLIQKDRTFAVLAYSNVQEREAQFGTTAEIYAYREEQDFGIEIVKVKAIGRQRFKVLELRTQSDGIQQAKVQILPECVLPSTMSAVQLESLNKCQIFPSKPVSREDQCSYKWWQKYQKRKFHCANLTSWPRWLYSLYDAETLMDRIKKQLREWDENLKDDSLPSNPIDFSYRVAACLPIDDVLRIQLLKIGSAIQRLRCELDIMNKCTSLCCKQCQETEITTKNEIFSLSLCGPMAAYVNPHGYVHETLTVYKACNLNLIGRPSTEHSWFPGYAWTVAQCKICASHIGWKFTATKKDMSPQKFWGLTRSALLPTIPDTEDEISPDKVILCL
T1 sequence (Q16531 whole entry partner): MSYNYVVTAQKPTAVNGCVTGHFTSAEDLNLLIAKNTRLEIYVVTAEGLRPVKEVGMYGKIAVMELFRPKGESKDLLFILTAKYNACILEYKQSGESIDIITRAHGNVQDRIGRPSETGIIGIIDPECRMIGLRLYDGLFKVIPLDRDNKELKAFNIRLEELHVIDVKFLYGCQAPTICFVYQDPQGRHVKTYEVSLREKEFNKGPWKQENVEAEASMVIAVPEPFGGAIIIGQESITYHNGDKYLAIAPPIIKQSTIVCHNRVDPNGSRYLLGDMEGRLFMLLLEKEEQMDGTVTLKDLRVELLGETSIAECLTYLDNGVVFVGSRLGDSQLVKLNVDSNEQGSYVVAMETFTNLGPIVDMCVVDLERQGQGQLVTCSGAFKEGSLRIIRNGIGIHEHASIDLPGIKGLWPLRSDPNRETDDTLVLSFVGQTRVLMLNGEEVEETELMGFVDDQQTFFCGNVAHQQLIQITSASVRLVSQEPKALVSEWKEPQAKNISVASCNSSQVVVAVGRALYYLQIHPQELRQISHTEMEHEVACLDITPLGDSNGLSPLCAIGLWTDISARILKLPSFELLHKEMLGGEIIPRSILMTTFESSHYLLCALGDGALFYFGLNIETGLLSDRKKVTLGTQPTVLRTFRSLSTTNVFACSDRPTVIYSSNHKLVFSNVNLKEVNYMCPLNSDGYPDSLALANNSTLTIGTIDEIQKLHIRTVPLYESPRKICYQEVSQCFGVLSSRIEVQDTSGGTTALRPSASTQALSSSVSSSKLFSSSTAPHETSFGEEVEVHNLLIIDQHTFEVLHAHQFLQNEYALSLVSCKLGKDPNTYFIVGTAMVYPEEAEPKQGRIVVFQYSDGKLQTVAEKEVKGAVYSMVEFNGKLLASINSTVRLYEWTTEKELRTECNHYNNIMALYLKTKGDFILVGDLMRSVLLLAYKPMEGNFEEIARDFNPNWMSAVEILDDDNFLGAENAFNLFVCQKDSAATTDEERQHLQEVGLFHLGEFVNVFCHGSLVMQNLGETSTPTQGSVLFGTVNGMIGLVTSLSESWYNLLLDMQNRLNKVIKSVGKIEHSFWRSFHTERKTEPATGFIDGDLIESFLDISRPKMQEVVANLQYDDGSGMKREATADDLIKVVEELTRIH

DC50 (GSPT1) | GI50 (HeLa KRas G12C cells) | Structure (SMILES)
5 to 10 µM | > 10 µM | C=CC(=O)N1CCN(c2nc(NCCOCCOCCOCCOCCOCCOCCc3cc(Cl)cc(NC(=O)NCc4ccc5c(c4)CN(C4CCC(=O)NC4=O)C5=O)c3)nc3c(F)c(-c4cc(O)cc5ccccc45)c(Cl)cc23)CC1 (centres unmarked) [Compound I-7, 1-[3-chloro-5-[2-[2-[2-[2-[2-[2-[2-[[6-chloro-8-fluoro-7-(3-hydroxy-1-naphthyl)-4-(4-prop-2-enoylpiperazin-1-yl)quinazolin-2-yl]amino]ethoxy]ethoxy]ethoxy]ethoxy]ethoxy]ethoxy]ethyl]phenyl]-3-[[2-(2,6-dioxo-3-piperidyl)-1-oxo-isoindolin-5-yl]methyl]urea]
> 10 µM | > 10 µM | C=CC(=O)N1CCN(c2nc(NCCCCCCCCc3cccc4c3CN(C3CCC(=O)NC3=O)C4=O)nc3c(F)c(-c4cc(O)cc5ccccc45)c(Cl)cc23)CC1 (centres unmarked) [Compound I-8, 3-(4-(8-((4-(4-acryloylpiperazin-1-yl)-6-chloro-8-fluoro-7-(3-hydroxynaphthalen-1-yl)quinazolin-2-yl)amino)octyl)-1-oxoisoindolin-2-yl)piperidine-2,6-dione]
> 10 µM | > 10 µM | C=C(F)C(=O)N1CCN(c2nc(OC[C@@H]3CCCN3CCOCCOCCOCCOCCOCCOCCOCCOCCOc3cc(Cl)cc(NC(=O)NCc4ccc5c(c4)CN(C4CCC(=O)NC4=O)C5=O)c3)nc3c2CCN(c2cccc4cccc(Cl)c24)C3)C[C@@H]1CC#N (stereo partly drawn) [Compound I-9, 1-[3-chloro-5-[2-[2-[2-[2-[2-[2-[2-[2-[2-[(2S)-2-[[7-(8-chloro-1-naphthyl)-4-[(3S)-3-(cyanomethyl)-4-(2-fluoroprop-2-enoyl)piperazin-1-yl]-6,8-dihydro-5H-pyrido[3,4-d]pyrimidin-2-yl]oxymethyl]pyrrolidin-1-yl]ethoxy]ethoxy]ethoxy]ethoxy]ethoxy]ethoxy]ethoxy]ethoxy]ethoxy]phenyl]-3-[[2-(2,6-dioxo-3-piperidyl)-1-oxo-isoindolin-5-yl]methyl]urea]
5 to 10 µM | 3 to 10 µM | C=C(F)C(=O)N1CCN(c2nc(OC[C@@H]3CCCN3CCOCCOCCOCCOCCOCCOCCOCCOCCOCCOCCOc3cc(Cl)cc(NC(=O)NCc4ccc5c(c4)CN(C4CCC(=O)NC4=O)C5=O)c3)nc3c2CCN(c2cccc4cccc(Cl)c24)C3)C[C@@H]1CC#N (stereo partly drawn) [Compound I-10, 1-[3-chloro-5-[2-[2-[2-[2-[2-[2-[2-[2-[2-[2-[2-[(2S)-2-[[7-(8-chloro-1-naphthyl)-4-[(3S)-3-(cyanomethyl)-4-(2-fluoroprop-2-enoyl)piperazin-1-yl]-6,8-dihydro-5H-pyrido[3,4-d]pyrimidin-2-yl]oxymethyl]pyrrolidin-1-yl]ethoxy]ethoxy]ethoxy]ethoxy]ethoxy]ethoxy]ethoxy]ethoxy]ethoxy]ethoxy]ethoxy]phenyl]-3-[[2-(2,6-dioxo-3-piperidyl)-1-oxo-isoindolin-5-yl]methyl]urea]
> 10 µM | > 10 µM | C=C(F)C(=O)N1CCN(c2nc(OC[C@@H]3CCCN3CCOCCOCCOCCOCCOCCOCCOCCOCCc3cc(Cl)cc(NC(=O)NCc4ccc5c(c4)CN(C4CCC(=O)NC4=O)C5=O)c3)nc3c2CCN(c2cccc4cccc(Cl)c24)C3)C[C@@H]1CC#N (stereo partly drawn) [Compound I-11, 1-[3-chloro-5-[2-[2-[2-[2-[2-[2-[2-[2-[2-[(2S)-2-[[7-(8-chloro-1-naphthyl)-4-[(3S)-3-(cyanomethyl)-4-(2-fluoroprop-2-enoyl)piperazin-1-yl]-6,8-dihydro-5H-pyrido[3,4-d]pyrimidin-2-yl]oxymethyl]pyrrolidin-1-yl]ethoxy]ethoxy]ethoxy]ethoxy]ethoxy]ethoxy]ethoxy]ethoxy]ethyl]phenyl]-3-[[2-(2,6-dioxo-3-piperidyl)-1-oxo-isoindolin-5-yl]methyl]urea]
5 to 10 µM | 3 to 10 µM | C=C(F)C(=O)N1CCN(c2nc(OC[C@@H]3CCCN3CCOCCOCCOCCOCCOCCOCCOCCOCCOCCOCCc3cc(Cl)cc(NC(=O)NCc4ccc5c(c4)CN(C4CCC(=O)NC4=O)C5=O)c3)nc3c2CCN(c2cccc4cccc(Cl)c24)C3)C[C@@H]1CC#N (stereo partly drawn) [Compound I-12, 1-[3-chloro-5-[2-[2-[2-[2-[2-[2-[2-[2-[2-[2-[2-[(2S)-2-[[7-(8-chloro-1-naphthyl)-4-[(3S)-3-(cyanomethyl)-4-(2-fluoroprop-2-enoyl)piperazin-1-yl]-6,8-dihydro-5H-pyrido[3,4-d]pyrimidin-2-yl]oxymethyl]pyrrolidin-1-yl]ethoxy]ethoxy]ethoxy]ethoxy]ethoxy]ethoxy]ethoxy]ethoxy]ethoxy]ethoxy]ethyl]phenyl]-3-[[2-(2,6-dioxo-3-piperidyl)-1-oxo-isoindolin-5-yl]methyl]urea]
> 10 µM | > 10 µM | C=CC(=O)N1CCN(c2nc(NCCOCCOCCOCCOCCOCCOCCOCCOCCOc3cc(Cl)cc(NC(=O)NCc4ccc5c(c4)CN(C4CCC(=O)NC4=O)C5=O)c3)nc3c(F)c(-c4cc(O)cc5ccccc45)c(Cl)cc23)CC1 (centres unmarked) [Compound I-13, 1-[3-chloro-5-[2-[2-[2-[2-[2-[2-[2-[2-[2-[[6-chloro-8-fluoro-7-(3-hydroxy-1-naphthyl)-4-(4-prop-2-enoylpiperazin-1-yl)quinazolin-2-yl]amino]ethoxy]ethoxy]ethoxy]ethoxy]ethoxy]ethoxy]ethoxy]ethoxy]ethoxy]phenyl]-3-[[2-(2,6-dioxo-3-piperidyl)-1-oxo-isoindolin-5-yl]methyl]urea]
> 10 µM | > 10 µM | C=CC(=O)N1CCN(c2nc(NCCOCCOCCOCCOCCOCCOCCOCCOCCOCCOCCOc3cc(Cl)cc(NC(=O)NCc4ccc5c(c4)CN(C4CCC(=O)NC4=O)C5=O)c3)nc3c(F)c(-c4cc(O)cc5ccccc45)c(Cl)cc23)CC1 (centres unmarked) [Compound I-14, 1-[3-chloro-5-[2-[2-[2-[2-[2-[2-[2-[2-[2-[2-[2-[[6-chloro-8-fluoro-7-(3-hydroxy-1-naphthyl)-4-(4-prop-2-enoylpiperazin-1-yl)quinazolin-2-yl]amino]ethoxy]ethoxy]ethoxy]ethoxy]ethoxy]ethoxy]ethoxy]ethoxy]ethoxy]ethoxy]ethoxy]phenyl]-3-[[2-(2,6-dioxo-3-piperidyl)-1-oxo-isoindolin-5-yl]methyl]urea]
> 10 µM | > 10 µM | C=CC(=O)N1CCN(c2nc(NCCOCCOCCOCCOCCOCCOCCOCCOCCc3cc(Cl)cc(NC(=O)NCc4ccc5c(c4)CN(C4CCC(=O)NC4=O)C5=O)c3)nc3c(F)c(-c4cc(O)cc5ccccc45)c(Cl)cc23)CC1 (centres unmarked) [Compound I-15, 1-[3-chloro-5-[2-[2-[2-[2-[2-[2-[2-[2-[2-[[6-chloro-8-fluoro-7-(3-hydroxy-1-naphthyl)-4-(4-prop-2-enoylpiperazin-1-yl)quinazolin-2-yl]amino]ethoxy]ethoxy]ethoxy]ethoxy]ethoxy]ethoxy]ethoxy]ethoxy]ethyl]phenyl]-3-[[2-(2,6-dioxo-3-piperidyl)-1-oxo-isoindolin-5-yl]methyl]urea]
> 10 µM | > 10 µM | C=CC(=O)N1CCN(c2nc(NCCOCCOCCOCCOCCOCCOCCOCCOCCOCCOCCc3cc(Cl)cc(NC(=O)NCc4ccc5c(c4)CN(C4CCC(=O)NC4=O)C5=O)c3)nc3c(F)c(-c4cc(O)cc5ccccc45)c(Cl)cc23)CC1 (centres unmarked) [Compound I-16, 1-[3-chloro-5-[2-[2-[2-[2-[2-[2-[2-[2-[2-[2-[2-[[6-chloro-8-fluoro-7-(3-hydroxy-1-naphthyl)-4-(4-prop-2-enoylpiperazin-1-yl)quinazolin-2-yl]amino]ethoxy]ethoxy]ethoxy]ethoxy]ethoxy]ethoxy]ethoxy]ethoxy]ethoxy]ethoxy]ethyl]phenyl]-3-[[2-(2,6-dioxo-3-piperidyl)-1-oxo-isoindolin-5-yl]methyl]urea]
> 10 µM | > 10 µM | C=CC(=O)N1CCN(c2nc(NCCC(=O)N(C)CCOCCOCCOCCOCCOCCOCCc3cc(Cl)cc(NC(=O)NCc4ccc5c(c4)CN(C4CCC(=O)NC4=O)C5=O)c3)nc3c(F)c(-c4cc(O)cc5ccccc45)c(Cl)cc23)CC1 (centres unmarked) [Compound I-17]
> 10 µM | > 10 µM | C=CC(=O)N1CCN(c2nc(NCCC(=O)N(C)CCOCCOCCOCCOCCOCCOCCOCCOCCc3cc(Cl)cc(NC(=O)NCc4ccc5c(c4)CN(C4CCC(=O)NC4=O)C5=O)c3)nc3c(F)c(-c4cc(O)cc5ccccc45)c(Cl)cc23)CC1 (centres unmarked) [Compound I-18, N-[2-[2-[2-[2-[2-[2-[2-[2-[2-[3-chloro-5-[[2-(2,6-dioxo-3-piperidyl)-1-oxo-isoindolin-5-yl]methylcarbamoylamino]phenyl]ethoxy]ethoxy]ethoxy]ethoxy]ethoxy]ethoxy]ethoxy]ethoxy]ethyl]-3-[[6-chloro-8-fluoro-7-(3-hydroxy-1-naphthyl)-4-(4-prop-2-enoylpiperazin-1-yl)quinazolin-2-yl]amino]-N-methyl-propanamide]
0.25 to 5 µM | > 10 µM | C=C(F)C(=O)N1CCN(c2nc(OC[C@@H]3CCCN3CCOCCOCCOCCOCCOCCOCCOCCOCCOCCOCCOCCOCCc3cc(Cl)cc(NC(=O)NCc4ccc5c(c4)CN(C4CCC(=O)NC4=O)C5=O)c3)nc3c2CCN(c2cccc4cccc(Cl)c24)C3)C[C@@H]1CC#N (some centres unmarked) [Compound I-37]

— US20240238424A1, “HETEROBIFUNCTIONAL COMPOUNDS AND METHODS OF TREATING DISEASE” (Halda Therapeutics OpCo, Inc., priority 2021, published 2024)
